± gives the uncertainty stated by the source.
Experiment: xn = mol fraction of the nth substance listed
Conditions: 101 kPa

[I-].[Li+] + CC[n+]1ccn(C)c1.O=S(=O)([N-]S(=O)(=O)C(F)(F)F)C(F)(F)F
electrical conductivity (288.15 K, x2 = 0.8475): 0.225 ± 0.023 S/m
electrical conductivity (288.15 K, x2 = 0.8826): 0.294 ± 0.03 S/m
electrical conductivity (288.15 K, x2 = 0.9207): 0.385 ± 0.039 S/m
electrical conductivity (288.15 K, x2 = 0.9587): 0.497 ± 0.05 S/m
electrical conductivity (298.15 K, x2 = 0.8099): 0.286 ± 0.029 S/m
electrical conductivity (298.15 K, x2 = 0.8475): 0.376 ± 0.038 S/m
electrical conductivity (298.15 K, x2 = 0.8826): 0.473 ± 0.048 S/m
electrical conductivity (298.15 K, x2 = 0.9207): 0.602 ± 0.06 S/m
electrical conductivity (298.15 K, x2 = 0.9587): 0.744 ± 0.075 S/m
electrical conductivity (333.15 K, x2 = 0.8099): 1.06 ± 0.11 S/m
electrical conductivity (333.15 K, x2 = 0.8475): 1.25 ± 0.12 S/m
electrical conductivity (333.15 K, x2 = 0.8826): 1.43 ± 0.14 S/m
electrical conductivity (333.15 K, x2 = 0.9207): 1.66 ± 0.17 S/m
electrical conductivity (333.15 K, x2 = 0.9587): 1.94 ± 0.19 S/m
